{"source": "ChEMBL document CHEMBL4130624", "about": "“Optimization of 1,4-Oxazine β-Secretase 1 (BACE1) Inhibitors Toward a Clinical Candidate” (J Med Chem, 2018)", "key": {"[1]": {"molecular_target": "hERG (KCNH2) (Homo sapiens, UniProt Q12809)", "sequence (Q12809 whole entry)": "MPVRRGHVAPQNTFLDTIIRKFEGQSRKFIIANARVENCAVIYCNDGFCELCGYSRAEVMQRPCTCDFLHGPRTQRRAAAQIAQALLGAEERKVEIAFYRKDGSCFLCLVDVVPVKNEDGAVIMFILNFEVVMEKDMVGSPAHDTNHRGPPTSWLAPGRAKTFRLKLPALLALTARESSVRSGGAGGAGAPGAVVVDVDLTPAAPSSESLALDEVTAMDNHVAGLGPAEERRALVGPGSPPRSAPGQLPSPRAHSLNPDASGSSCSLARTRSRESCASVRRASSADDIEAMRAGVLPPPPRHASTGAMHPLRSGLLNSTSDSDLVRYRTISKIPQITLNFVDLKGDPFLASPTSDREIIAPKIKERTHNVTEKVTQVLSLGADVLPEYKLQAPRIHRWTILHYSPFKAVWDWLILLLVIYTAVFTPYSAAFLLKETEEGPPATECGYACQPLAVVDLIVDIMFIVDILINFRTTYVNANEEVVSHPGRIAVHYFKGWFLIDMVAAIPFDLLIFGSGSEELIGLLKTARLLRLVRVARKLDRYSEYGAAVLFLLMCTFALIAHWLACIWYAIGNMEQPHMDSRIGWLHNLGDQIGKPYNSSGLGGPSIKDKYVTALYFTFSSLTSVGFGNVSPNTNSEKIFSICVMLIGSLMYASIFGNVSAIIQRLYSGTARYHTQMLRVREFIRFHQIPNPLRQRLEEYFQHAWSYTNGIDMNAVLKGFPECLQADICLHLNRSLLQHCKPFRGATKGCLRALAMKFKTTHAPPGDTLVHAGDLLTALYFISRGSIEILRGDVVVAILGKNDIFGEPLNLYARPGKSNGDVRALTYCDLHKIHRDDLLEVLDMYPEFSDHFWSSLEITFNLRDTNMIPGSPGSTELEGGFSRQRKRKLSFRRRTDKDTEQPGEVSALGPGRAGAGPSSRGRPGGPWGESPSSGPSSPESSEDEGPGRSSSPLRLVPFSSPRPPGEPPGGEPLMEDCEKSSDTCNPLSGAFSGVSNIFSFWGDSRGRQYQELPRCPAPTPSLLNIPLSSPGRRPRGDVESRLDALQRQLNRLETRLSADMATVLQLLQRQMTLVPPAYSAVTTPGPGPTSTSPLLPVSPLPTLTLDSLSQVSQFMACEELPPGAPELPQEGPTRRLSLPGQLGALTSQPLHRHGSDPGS", "test": "Inhibition of human ERG expressed in HEK293 cells assessed as reduction in outward potassium current at 3 uM at holding potential was -80 mV after 5 mins by patch clamp assay", "format": "cell-based", "conditions": "HEK293 cells that express hERG"}, "[2]": {"test": "Drug metabolism in human liver microsomes at 1 uM after 15 mins in presence of NADPH by HPLC-MS/MS analysis", "format": "ADME, microsome", "conditions": "read-out: Drug metabolism"}, "[3]": {"molecular_target": "Cytochrome P450 1A2 (Homo sapiens, UniProt P05177)", "sequence (P05177 whole entry)": "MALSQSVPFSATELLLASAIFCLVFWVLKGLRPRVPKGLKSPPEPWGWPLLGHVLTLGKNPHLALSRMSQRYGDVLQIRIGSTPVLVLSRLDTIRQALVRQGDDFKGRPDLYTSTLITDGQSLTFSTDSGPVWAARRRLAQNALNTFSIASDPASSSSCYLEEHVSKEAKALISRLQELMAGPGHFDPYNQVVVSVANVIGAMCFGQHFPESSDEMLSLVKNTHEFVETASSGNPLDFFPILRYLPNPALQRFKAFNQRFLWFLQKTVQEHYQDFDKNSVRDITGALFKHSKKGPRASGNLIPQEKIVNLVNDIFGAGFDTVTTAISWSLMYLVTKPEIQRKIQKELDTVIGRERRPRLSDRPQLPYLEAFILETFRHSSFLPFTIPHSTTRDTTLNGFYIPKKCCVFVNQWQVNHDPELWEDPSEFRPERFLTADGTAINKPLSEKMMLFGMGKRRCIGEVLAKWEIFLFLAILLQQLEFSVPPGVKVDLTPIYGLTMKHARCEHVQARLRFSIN", "test": "Reversible inhibition of recombinant human CYP1A2 by fluorescence-based assay", "format": "ADME"}, "[4]": {"molecular_target": "Cytochrome P450 2C8 (Homo sapiens, UniProt P10632)", "sequence (P10632 whole entry)": "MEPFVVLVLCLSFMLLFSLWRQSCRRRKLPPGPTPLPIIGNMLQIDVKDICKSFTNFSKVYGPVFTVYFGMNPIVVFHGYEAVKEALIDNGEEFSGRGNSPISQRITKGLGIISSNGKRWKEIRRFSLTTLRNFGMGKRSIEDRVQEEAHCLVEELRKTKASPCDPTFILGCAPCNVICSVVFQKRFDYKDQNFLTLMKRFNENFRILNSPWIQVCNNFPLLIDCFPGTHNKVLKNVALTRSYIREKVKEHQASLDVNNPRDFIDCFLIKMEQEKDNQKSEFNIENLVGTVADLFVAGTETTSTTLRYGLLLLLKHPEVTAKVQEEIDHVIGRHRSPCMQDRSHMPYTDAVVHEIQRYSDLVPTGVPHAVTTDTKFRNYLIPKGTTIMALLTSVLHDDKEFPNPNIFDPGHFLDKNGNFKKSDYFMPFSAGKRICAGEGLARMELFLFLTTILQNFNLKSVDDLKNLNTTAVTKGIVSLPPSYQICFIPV", "test": "Reversible inhibition of recombinant human CYP2C8 by fluorescence-based assay", "format": "ADME"}, "[5]": {"molecular_target": "Cytochrome P450 2C9 (Homo sapiens, UniProt P11712)", "sequence (P11712 whole entry)": "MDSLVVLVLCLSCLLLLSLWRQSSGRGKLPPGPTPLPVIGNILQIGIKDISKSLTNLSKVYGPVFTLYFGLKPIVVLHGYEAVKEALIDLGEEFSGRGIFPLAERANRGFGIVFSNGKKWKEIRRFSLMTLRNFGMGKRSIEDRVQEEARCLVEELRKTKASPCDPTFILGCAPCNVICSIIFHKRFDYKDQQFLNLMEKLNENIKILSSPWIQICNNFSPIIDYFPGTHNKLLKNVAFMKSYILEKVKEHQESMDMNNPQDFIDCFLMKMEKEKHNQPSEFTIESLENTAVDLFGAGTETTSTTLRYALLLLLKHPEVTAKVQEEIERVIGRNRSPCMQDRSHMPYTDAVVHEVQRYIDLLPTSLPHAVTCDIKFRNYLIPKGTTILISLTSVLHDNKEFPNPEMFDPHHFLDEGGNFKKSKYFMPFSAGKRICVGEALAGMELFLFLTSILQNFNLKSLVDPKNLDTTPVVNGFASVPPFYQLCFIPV", "test": "Reversible inhibition of recombinant human CYP2C9 by fluorescence-based assay", "format": "ADME"}, "[6]": {"molecular_target": "Cytochrome P450 2C19 (Homo sapiens, UniProt P33261)", "sequence (P33261 whole entry)": "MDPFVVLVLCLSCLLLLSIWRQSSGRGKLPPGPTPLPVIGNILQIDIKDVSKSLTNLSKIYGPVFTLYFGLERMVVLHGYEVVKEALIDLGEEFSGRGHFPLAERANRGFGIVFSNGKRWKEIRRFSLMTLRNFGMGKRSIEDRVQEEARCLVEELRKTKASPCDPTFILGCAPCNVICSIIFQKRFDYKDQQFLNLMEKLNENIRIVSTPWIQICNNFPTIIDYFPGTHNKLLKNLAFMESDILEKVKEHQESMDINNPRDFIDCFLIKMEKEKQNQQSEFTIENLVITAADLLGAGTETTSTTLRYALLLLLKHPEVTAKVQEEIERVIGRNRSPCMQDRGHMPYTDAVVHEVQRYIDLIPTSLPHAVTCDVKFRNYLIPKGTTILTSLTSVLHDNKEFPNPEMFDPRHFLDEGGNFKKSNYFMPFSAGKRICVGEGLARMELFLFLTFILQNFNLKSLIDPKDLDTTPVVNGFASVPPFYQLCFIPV", "test": "Reversible inhibition of recombinant human CYP2C19 by fluorescence-based assay", "format": "ADME"}, "[7]": {"molecular_target": "Cytochrome P450 3A4 (Homo sapiens, UniProt P08684)", "sequence (P08684 whole entry)": "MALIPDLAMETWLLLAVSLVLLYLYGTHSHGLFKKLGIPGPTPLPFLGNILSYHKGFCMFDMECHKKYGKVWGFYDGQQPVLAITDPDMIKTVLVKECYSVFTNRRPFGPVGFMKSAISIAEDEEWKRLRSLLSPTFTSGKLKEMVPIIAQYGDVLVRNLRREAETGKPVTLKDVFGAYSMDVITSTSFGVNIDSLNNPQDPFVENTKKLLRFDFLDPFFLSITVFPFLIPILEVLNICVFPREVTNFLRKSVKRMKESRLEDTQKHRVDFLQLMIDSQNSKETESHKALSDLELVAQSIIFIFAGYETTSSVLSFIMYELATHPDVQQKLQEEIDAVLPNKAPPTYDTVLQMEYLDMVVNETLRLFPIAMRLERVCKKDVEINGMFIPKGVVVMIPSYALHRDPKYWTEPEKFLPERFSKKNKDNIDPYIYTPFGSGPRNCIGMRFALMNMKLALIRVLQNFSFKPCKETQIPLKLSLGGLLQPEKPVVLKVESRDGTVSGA", "test": "Reversible inhibition of recombinant human CYP3A4 by fluorescence-based assay", "format": "ADME"}, "[8]": {"molecular_target": "Mu-type opioid receptor (Homo sapiens) (UniProt P35372)", "sequence (P35372 whole entry)": "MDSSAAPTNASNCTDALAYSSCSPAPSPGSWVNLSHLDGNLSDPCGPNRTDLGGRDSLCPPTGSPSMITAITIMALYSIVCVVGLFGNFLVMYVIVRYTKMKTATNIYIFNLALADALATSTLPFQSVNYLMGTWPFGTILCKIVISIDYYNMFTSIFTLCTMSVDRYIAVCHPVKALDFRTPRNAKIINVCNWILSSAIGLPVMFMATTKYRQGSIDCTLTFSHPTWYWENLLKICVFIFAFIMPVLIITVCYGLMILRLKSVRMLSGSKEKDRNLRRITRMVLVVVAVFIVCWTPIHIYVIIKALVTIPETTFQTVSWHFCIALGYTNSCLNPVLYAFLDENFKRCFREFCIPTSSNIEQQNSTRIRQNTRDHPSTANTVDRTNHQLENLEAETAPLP", "test": "Inhibition of recombinant human mu-type opioid receptor at 10 uM after 5 mins"}, "[9]": {"test": "Clearance in Sprague-Dawley rat at 2.5 mg/kg, iv administered as bolus dose by LC-MS/MS analysis", "format": "ADME, organism-based", "conditions": "in vivo"}, "[10]": {"test": "Volume of distribution at steady state in Swiss mouse at 2.5 mg/kg, iv administered as bolus dose by LC-MS/MS analysis", "format": "ADME, organism-based", "conditions": "in vivo, read-out: Vdss"}, "[11]": {"tested_on": "Canis familiaris", "test": "Volume of distribution at steady state in Beagle dog at 1 mg/kg, iv administered as bolus dose by LC-MS/MS analysis", "format": "ADME, organism-based, Canis lupus familiaris", "conditions": "in vivo"}, "[12]": {"tested_on": "Canis familiaris", "test": "Half life in Beagle dog at 1 mg/kg, iv administered as bolus dose by LC-MS/MS analysis", "format": "ADME, organism-based, Canis lupus familiaris", "conditions": "in vivo"}, "[13]": {"test": "Cmax in Swiss mouse at 10 mg/kg, po administered as bolus dose by LC-MS/MS analysis", "format": "ADME, organism-based", "set-up": "dose 10 mg/kg, route oral", "conditions": "in vivo"}, "[14]": {"test": "Cmax in Beagle dog at 10 mg/kg, po administered as bolus dose by LC-MS/MS analysis", "format": "ADME, organism-based, Canis lupus familiaris", "set-up": "dose 10 mg/kg, route oral", "conditions": "in vivo"}, "[15]": {"test": "Tmax in Swiss mouse at 10 mg/kg, po administered as bolus dose by LC-MS/MS analysis", "format": "ADME, organism-based", "conditions": "in vivo"}, "[16]": {"test": "Tmax in Sprague-Dawley rat at 10 mg/kg, po administered as bolus dose by LC-MS/MS analysis", "format": "ADME, organism-based", "conditions": "in vivo"}, "[17]": {"test": "AUC (0 to infinity) in Sprague-Dawley rat at 10 mg/kg, po administered as bolus dose by LC-MS/MS analysis", "format": "ADME, organism-based", "set-up": "dose 10 mg/kg, route oral, time infinity", "conditions": "in vivo"}, "[18]": {"test": "AUC (0 to infinity) in Beagle dog at 10 mg/kg, po administered as bolus dose by LC-MS/MS analysis", "format": "ADME, organism-based, Canis lupus familiaris", "set-up": "dose 10 mg/kg, time infinity, route oral", "conditions": "in vivo"}, "[19]": {"tested_on": "Rattus norvegicus", "test": "Systemic clearance in Sprague-Dawley rat at 2.5 mg/kg, iv administered as bolus dose by LC-MS/MS analysis relative to liver blood flow", "format": "ADME, organism-based", "conditions": "in vivo"}, "[20]": {"tested_on": "Cavia porcellus", "test": "Cardiotoxicity in anesthetized guinea pigs assessed as drug level causing QTcB prolongation dosed up to 10 mg/kg, iv administered over a period of 5 min at 15 min interval by ECG analysis", "format": "toxicity, organism-based", "conditions": "guinea pig, in vivo"}, "[21]": {"tested_on": "Salmonella typhimurium", "test": "Mutagenicity in Salmonella typhimurium TA98 up to 500 ug/ml in absence of rat liver S9 fraction by Ames 2 assay", "format": "toxicity, organism-based", "conditions": "salmonella enterica subsp. enterica serovar typhimurium"}, "[22]": {"tested_on": "Salmonella typhimurium", "test": "Mutagenicity in Salmonella typhimurium TAmix up to 500 ug/ml in absence of rat liver S9 fraction by Ames 2 assay", "format": "toxicity, organism-based", "conditions": "salmonella enterica subsp. enterica serovar typhimurium"}, "[23]": {"tested_on": "TK6", "test": "Genotoxicity in human TK6 cells at 80 ug/ml after 24 hrs in absence of rat liver S9 fraction by micronucleus assay", "format": "toxicity, cell-based", "conditions": "tk6, 24 h"}, "[24]": {"tested_on": "TK6", "test": "Genotoxicity in human TK6 cells at 188 ug/ml after 4 hrs in presence of rat liver S9 fraction by micronucleus assay", "format": "toxicity, cell-based", "conditions": "s9, 4 h"}, "[25]": {"test": "Ratio of drug level in kidney to plasma of Sprague-Dawley rat at 10 mg/kg, po", "format": "ADME, organism-based"}, "[26]": {"test": "Ratio of drug level in lung to plasma of Sprague-Dawley rat at 10 mg/kg, po", "format": "ADME, organism-based"}, "[27]": {"tested_on": "Rattus norvegicus", "test": "Toxicity in Sprague-Dawley rat assessed as effect on body weight at 225 mg/kg/day, po administered via gavage for 1 month", "format": "organism-based", "conditions": "in vivo"}, "[28]": {"tested_on": "Rattus norvegicus", "test": "Toxicity in Sprague-Dawley rat assessed as effect on food consumption at 225 mg/kg/day, po administered via gavage for 1 month", "format": "organism-based", "conditions": "in vivo"}, "[29]": {"test": "AUC (0 to 24 hrs) in male Sprague-Dawley rat at 75 mg/kg, po measured after 1 month repeated dosing by LC-MS/MS analysis", "format": "ADME, organism-based", "set-up": "time < 24 hr, dose 75 mg/kg, route oral", "conditions": "in vivo"}, "[30]": {"tested_on": "Canis familiaris", "test": "Toxicity in Beagle dog assessed as drug tolerability up to 20 mg/kg, po", "format": "organism-based, Canis lupus familiaris", "conditions": "in vivo"}, "[31]": {"tested_on": "Canis familiaris", "test": "Toxicity in Beagle dog assessed as induction of appearance changes at 0.63 to 20 mg/kg, po qd for 1 day", "format": "organism-based, Canis lupus familiaris", "conditions": "in vivo, 24 h"}, "[32]": {"tested_on": "Canis familiaris", "test": "Toxicity in Beagle dog assessed as induction of behavioural changes at 0.63 to 20 mg/kg, po qd for 6 days", "format": "organism-based, Canis lupus familiaris", "conditions": "in vivo, 144 h"}, "[33]": {"test": "Ratio of fEC50 for antialzheimer activity in po dosed Beagle dog assessed as reduction in amyloid beta (1 to 40) levels to Inhibition of BACE1 (1 to 454 residues) (unknown origin)", "format": "functional"}, "[34]": {"test": "Safety index, ratio of NOAEL for cardiotoxicity in anesthetized guinea pigs assessed as total drug level causing QTcB prolongation dosed up to 10 mg/kg, iv administered over a period of 5 min at 15 mins interval by ECG analysis to EC50 for Antialzheimer activity in po dosed Beagle dog assessed as reduction in amyloid beta (1 to 40) levels measured after 1 hr post dose by ELISA", "format": "toxicity, organism-based", "conditions": "guinea pig, in vivo"}, "[35]": {"test": "Toxicity in Sprague-Dawley rat administered daily via oral gavage for 1 month", "format": "organism-based", "conditions": "in vivo"}, "[36]": {"tested_on": "Canis familiaris", "test": "Toxicity in beagle dog assessed as induction of tremors at 70 to 250 mg/kg/day, po qd for 1 week", "format": "organism-based, Canis lupus familiaris", "conditions": "in vivo, 168 h"}, "[37]": {"tested_on": "Canis familiaris", "test": "Toxicity in male beagle dog at 20 to 250 mg/kg/day, po qd for 1 month followed by 1 month recovery period", "format": "organism-based, Canis lupus familiaris", "conditions": "in vivo"}, "[38]": {"species_on_record": "Homo sapiens", "test": "Selectivity for BACE1 (unknown origin) over BACE2 (unknown origin)"}, "[39]": {"test": "AUC (0 to 24 hrs) in male Beagle dog at 70 mg/kg, po measured after 1 month repeated dosing by LC-MS/MS analysis", "conditions": "in vivo"}, "[40]": {"tested_on": "Canis familiaris", "test": "Antialzheimer activity in po dosed Beagle dog assessed as reduction in CSF amyloid beta (1 to 42) levels measured after 49 hrs post dose by MesoScale electrochemiluminescence", "conditions": "Canis lupus familiaris"}}, "note": "The source made the active and inactive calls. No cut-off for these calls is given here."}
{"molecule": "C[C@]1(c2cc(NC(=O)c3ccc(C#N)cn3)ccc2F)N=C(N)CO[C@H]1C(F)(F)F", "values": [{"measurement": "inhibition at 5 min, 3 µM", "setting": "[1]", "value": 22, "unit": "%"}, {"measurement": "metabolised at 0.25 h, 1 µM", "setting": "[2]", "value": 2, "unit": "%"}, {"measurement": "IC50", "setting": "[3]", "value": "> 30", "unit": "µM"}, {"measurement": "IC50", "setting": "[4]", "value": "> 30", "unit": "µM"}, {"measurement": "IC50", "setting": "[5]", "value": "> 30", "unit": "µM"}, {"measurement": "IC50", "setting": "[6]", "value": "> 30", "unit": "µM"}, {"measurement": "IC50", "setting": "[7]", "value": "> 30", "unit": "µM"}, {"measurement": "inhibition", "setting": "[8]", "value": 91, "unit": "%"}, {"measurement": "clearance", "setting": "[9]", "value": 2.82, "unit": "L/h/kg"}, {"measurement": "Vd", "setting": "[10]", "value": 7.6, "unit": "L/kg"}, {"measurement": "Vdss", "setting": "[11]", "value": 7.6, "unit": "L/kg"}, {"measurement": "t1/2", "setting": "[12]", "value": 12, "unit": "h"}, {"measurement": "Cmax", "setting": "[13]", "value": 0.333, "unit": "µM"}, {"measurement": "Cmax", "setting": "[14]", "value": 1.09, "unit": "µM"}, {"measurement": "Tmax", "setting": "[15]", "value": 1, "unit": "h"}, {"measurement": "Tmax", "setting": "[16]", "value": 2, "unit": "h"}, {"measurement": "AUC(0-inf)", "setting": "[17]", "value": 1.22, "unit": "µg·h/mL"}, {"measurement": "AUC(0-inf)", "setting": "[18]", "value": 15.4, "unit": "µg·h/mL"}, {"measurement": "CL", "setting": "[19]", "value": 67, "unit": "%"}, {"measurement": "LOAEL", "setting": "[20]", "value": 11500, "unit": "ng/mL"}, {"measurement": "NOAEL", "setting": "[20]", "value": 5235, "unit": "ng/mL"}, {"measurement": "fLOAEL", "setting": "[20]", "value": 10.1, "unit": "µM"}, {"measurement": "fNOAEL", "setting": "[20]", "value": 4.6, "unit": "µM"}, {"measurement": "Activity", "setting": "[21]", "value": "Non-Toxic"}, {"measurement": "Activity", "setting": "[22]", "value": "Non-Toxic"}, {"measurement": "Activity", "setting": "[23]", "value": "Non-Toxic"}, {"measurement": "Activity", "setting": "[24]", "value": "Non-Toxic"}, {"measurement": "Kp", "setting": "[25]", "value": 19}, {"measurement": "Kp", "setting": "[26]", "value": 169}, {"measurement": "Activity", "setting": "[27]", "value": "Non-Toxic"}, {"measurement": "Activity", "setting": "[28]", "value": "Non-Toxic"}, {"measurement": "AUC at 24 h", "setting": "[29]", "value": 13.7, "unit": "µg·h/mL"}, {"measurement": "Activity", "setting": "[30]", "value": "Non-Toxic"}, {"measurement": "Activity", "setting": "[31]", "value": "Non-Toxic"}, {"measurement": "Activity", "setting": "[32]", "value": "Non-Toxic"}, {"measurement": "Ratio", "setting": "[33]", "value": 3}, {"measurement": "selectivity ratio", "setting": "[34]", "value": 50}, {"measurement": "NOAEL at 1 month", "setting": "[35]", "value": 75, "unit": "mg/kg"}, {"measurement": "Activity", "setting": "[36]", "value": "Toxic"}, {"measurement": "Activity", "setting": "[37]", "value": "Non-Toxic"}, {"measurement": "Selectivity ratio", "setting": "[38]", "value": 10}, {"measurement": "AUC at 24 h", "setting": "[39]", "value": 26.3, "unit": "µg·h/mL"}, {"measurement": "Activity", "setting": "[40]", "value": "Active"}]}
